According to patent publication US20150150261A1, “METHODS FOR APPLYING DIFORMYLUREA TO CROPS FOR GREATER PLANT PRODUCTIVITY” (Stoller Enterprises, Inc., priority 2013, published 2015):
“Also recorded” adds a separate entry of the source.

Tests used:
Type in all cases: in vivo
corn seedlings [1] = assay: Guttation on corn seedling leaves (FIG. 4); conditions: as a function of DFU amounts
Text: FIG. 4 illustrates the results of increased guttation on seedling leaves as a function of DFU amounts.

field corn = assay: Field corn yield, foliar DFU at V4 along with Round-Up herbicide (Table 5); parameters: Yield rep1 / Yield rep2 / Yield rep3 / Yield rep4: unit not given here; conditions: for Yield Bu/acre: control 209
Text: Table 5 below illustrates the effect of foliar application of DFU applied at V4 (4th leaf stage of crop growth) at either the rate of ½ pt/acre along with the herbicide Round-Up™ herbicides on field corn. Both the control and the treatments also had 0.9 lb of ammonium sulfate applied along with the herbicide and di-formylurea (DFU). The field corn was planted in southern Texas on Mar. 3, 2012, at a population density of 35,000 plants per acre. […] The large difference was in the harvestable yields of the di-formyl urea treated plants over the control which received the herbicide only.

corn seedlings [2] = assay: Sealed barrel water use test with corn seedlings (FIG. 14)
Description: It has also been discovered that crops treated with DFU require less water for growing. See the results illustrated in FIG. 14. In two barrels that were sealed at the top, a precise amount of growing medium was added with appropriate fertilizer and a precise amount of water. […] Seven corn seedlings were germinated and grown in the growing medium in each of the barrels for a period of 37 days. At 37 days the fresh weight and dry weights of corn plants were determined. The graph on the right side of […] depicts the combined weight of the water and the plants growing out of the barrels. The graph on the left depicts the average amount of water needed to grow the treated vs the untreated corn, indicating a twenty eight percent savings with the DFU-treated plants contrasted to the untreated plants. The two barrels were constantly weighed electronically.

corn crop = assay: Corn crop yield with DFU combined with nitrogen fertilizer; conditions: DFU combined with nitrogen fertilizer to the soil vs nitrogen fertilizer alone
Text: Enhanced tissue development in DFU treated corn plants is illustrated by the experiment illustrated in FIG. 15.

soybean plants = assay: Soybean yield after DFU seed treatment (Table 2)
Text: As further evidence the increase in crop production as a result of DFU treatment see Table 2 below. Untreated soybean plant yields were 52.5 bushels per acre. The DFU treated soybean plants yielded 111 bushels per acre. This represents an increase in […] of 111 percent.

corn plants [3] = assay: Survival of corn plants in a flooded field (FIGS. 5-13); conditions: corn field flooded by excessive rain; in furrow DFU
Text: The method of applying DFU to crop plants, which has been covered by natural rain or other types of flooding is a distinctive enhanced feature of DFU treatment of crop plants to ameliorate damaging effects of field soil excessive moisture such as flooding. The most efficacious method of DFU treatment for this feature is that of an “in furrow” application into the open soil furrow at time of crop seed sowing with a spray of DFU at a dose of one to one and a half pints per acre over the seed and unto the soil of the open furrow before closure of the open furrow and application of pressure to the closed furrow for optimal soil contact with the seed. […] DFU is preferably sprayed at a dose of 1 pint per acre to 1½ pints per acre over the seed and onto the soil of the open furrow before closure of the open furrow and application of pressure to the closed furrow for optional soil contact with the seed. FIG. 5 is a photograph of a corn field completely flooded by excessive rain. FIGS. 6 and 7 show corn plants treated with DFU after the excessive water has retreated somewhat. The corn plants are seen to be growing. […] FIG. 9 is a photograph of a corn field which has not been treated with DFU, but after flooding, has been almost completely killed because of the water. FIG. 10 is a close-up photo of corn that has been killed because of flooding. […]

[4] = tested on: field corn cultivar DKC 66-96; assay: Field corn yield, nitrogen fertilizer use efficiency (Table 4)
Text: A total of 180 lb of nitrogen fertilizer/acre, with ½ of nitrogen applied at V4 (forth leaf) and ½ at V7 (seventh leaf) as a side dress (3 inches to the side of the plant and 3 inches below the soil surface). The field corn cultivar DKC 66-96 was planted on Feb. 11, 2013 and harvested on Jul. 12, 2013.

soybean = assay: Soybean yield with DFU and Quadris fungicide (Table 3)
Text: Table 3 below illustrates the increased performance of herbicides and fungicides for crop plants by addition of DFU to the crops. Quadris™ fungicide (product of Syngenta Crop Protection, Inc.) was applied at the R1 stage of growth and gave a yield increase of 15 bushels per acre. DFU by itself increased soybean yields by 40 bushels per acre. DFU and Quadris applied together increased the yields by 52 bushels.

corn plants [5] = assay: Root structure of DFU-treated vs untreated corn plants (FIG. 1); conditions: treated vs untreated corn plant
Text: FIG. 1 is a photograph illustrating root structure of two corn plants, one treated (on right) with DFU, the other untreated (on left); It has been discovered that application of DFU to growing crop plants results in a large increase in the functional capacity of the crop plant root system because of selective root tissue synthesis and development of fine small feeder roots that operate to take up water and minerals from the soil environment. Treatment of crop plant tissue described herein includes exogenous treatment of the crop plants with a DFU solution at a rate of between 0.1 to 10 pints/acre over the crop growth stages or as a preferred rate of 0.5 to 1.5 pints per acre. Preferably, the concentration of the DFU which is applied at the above rates is from stock solutions of 0.001 Molar to 1.0 Molar with a preferred Molarity of 0.001 Molar to 0.05 Molar. FIG. 1 is a photograph of two plants: the plant on the left had no treatment with DFU; the plant on the right hand side was treated with DFU. […] The treated plant on the right hand side of FIG. 1 is in contrast to the thicker deeper roots of the plant on the left hand side which has fewer “root tips” for water and nutrient uptake from the soil. The DFU treated plant on the right has smaller feeder roots for water, mineral, and nutrient uptake from the roots to the shoots.

corn plant [6] = assay: Internodal stalk volume of corn plants (Table 1)
Description: It has also been discovered that DFU treatment of corn plants increases the inter-nodal volume of corn plants. Table 1 below confirms that discovery where intermodal stalk volumes of untreated corn crop plants was calculated to be 311.71 cc per plant whereas the inter-nodal stalk volumes of the DFU-treated corn plant was 355.47, an increase of 14% over the control plant.

corn plant [7] = assay: Soil moisture around feeder roots of corn plants (FIGS. 2, 3); conditions: DFU-treated (FIG. 3) vs untreated (FIG. 2) corn plant
Text: FIG. 2 is a photograph of a root structure showing dry soil around the roots of a corn plant that has not been treated with DFU; FIG. 3 is a photograph of a root structure showing moist soil around the roots of a corn plant (grown under the same conditions as that of FIG. 2) treated with DFU; It has also been discovered that applying DFU to crop plants causes enhancement of crop plant cellular water and soil moisture around the feeder roots. Compare the feeder root system of FIG. 2 of a plant that has had no DFU applied to it with the feeder root system of FIG. 3 of a plant that has DFU applied to it.

[8] = soybean, seed treatment 2 oz DFU/cwt of seed
[9] = field corn, seed treat 2 oz/cwt, V4 ½ pt, V9 1 pt
[10] = soybean yield, DFU 1 pt/acre, Quadris recommended rate

SMILES: O=CNC(=O)NC=O [DFU, diformylurea]
- guttation of water on plant leaves (corn seedlings [1]): increases guttation
- Yield % increase (field corn; V4 foliar 1 pt/acre): 21.5%
- Yield increase bu/acre vs control (field corn; V4 foliar 1 pt/acre): 45 bu/acre
- Yield rep1 (field corn; V4 foliar 1 pt/acre): 246
- Yield rep2 (field corn; V4 foliar 1 pt/acre): 251
- Yield rep3 (field corn; V4 foliar 1 pt/acre): 256
- Yield rep4 (field corn; V4 foliar 1 pt/acre): 264
- Yield Bu/acre (field corn; V4 foliar 1 pt/acre with Round-Up and ammonium sulfate): 254 Bu/acre
- Yield % increase (field corn; V4 foliar ½ pt/acre): 13.9%
- Yield increase bu/acre vs control (field corn; V4 foliar ½ pt/acre): 29 bu/acre
- Yield rep1 (field corn; V4 foliar ½ pt/acre): 227
- Yield rep2 (field corn; V4 foliar ½ pt/acre): 232
- Yield rep3 (field corn; V4 foliar ½ pt/acre): 224
- Yield rep4 (field corn; V4 foliar ½ pt/acre): 237
- Yield Bu/acre (field corn; V4 foliar ½ pt/acre with Round-Up and ammonium sulfate): 230 Bu/acre
- savings in average amount of water needed to grow corn (corn seedlings [2]; 0.0015% solution of DFU, 37 days, vs untreated): twenty eight
- enhanced water use efficiency (corn seedlings [2]; crop plants treated with DFU): up to 28%
- yield of the corn crop (corn crop): significantly enhances yield
- increase in water use efficiency (soybean plants; soybean yield vs untreated 52.5 bushels per acre): 111%
- Rep 1 Yield (soybean plants; [8]): 109
- Rep2 Yield (soybean plants; [8]): 112
- Rep3 Yield (soybean plants; [8]): 111
- Rep4 Yield (soybean plants; [8]): 112
- Average Yield bu per acre (soybean plants; soybean, seed treatment 2 oz DFU/cwt of seed, control 52.5): 111 bu per acre
- soybean plant yield (soybean plants; untreated 52.5): 111 bushels per acre
- survival of plants in flooded field (corn plants [3]): prevents drowning of the plants; also recorded: survived the flood
- Rep 1 Yield [4, 9]: 175.5
- Rep2 Yield [4, 9]: 188
- Rep3 Yield [4, 9]: 178.7
- Rep4 Yield [4, 9]: 185.1
- Average Yield bu per acre ([4]; field corn, seed treat 2 oz/cwt, V4 ½ pt, V9 1 pt, 180 lb nitrogen fertilizer/acre, control 112.6): 180.6 bu per acre
- increase in efficiency of use of the available nitrogen mineral fertilizer ([4]; harvested yield vs untreated control): 60.7%
- Soybean Yield Bu/acre (soybean; DFU @ 1 pt/acre, Quadris @ recommended rate at R1, control 55.0): 95.1 Bu/acre
- Rep 1 (soybean; [10]): 92.7
- Rep 2 (soybean; [10]): 95.8
- Rep 3 (soybean; [10]): 89.9
- Rep 4 (soybean; [10]): 102
- soybean yield increase (soybean; vs control): 40 bushels per acre
- fine small feeder root system development (corn plants [5]): significantly greater fine small feeder root system development
- Internodal Volume (cc) (corn plant [6]; Growth Stage V1): 33.49 cc
- Internodal Volume (cc) (corn plant [6]; Growth Stage V2): 45.02 cc
- Internodal Volume (cc) (corn plant [6]; Growth Stage V3): 55.76 cc
- Internodal Volume (cc) (corn plant [6]; Growth Stage V4): 59.14 cc
- Internodal Volume (cc) (corn plant [6]; Growth Stage V5): 54.34 cc
- Internodal Volume (cc) (corn plant [6]; Growth Stage V6): 47.79 cc
- Internodal Volume (cc) (corn plant [6]; Growth Stage V7): 35.02 cc
- Internodal Volume (cc) (corn plant [6]; Growth Stage V8): 24.9 cc
- inter-nodal stalk volumes per plant (corn plant [6]; calculated total, untreated 311.71): 355.47 cc per plant
- increase of inter-nodal stalk volume over the control plant (corn plant [6]; vs untreated corn plant): 14%
- soil moisture around the root system (corn plant [7]): Much more moist soil
